Starred links: 1 amine or outer side, 2 acyl side, 3 side chain; linkers in the order of their positions; H or OH if unused. Residues, ends and D or L forms follow the SMILES beside them. Groups on a side chain read outwards from the residue. *: point of attachment. γGlu = O=C(O)[C@H](CCC(=O)[*:2])N[*:1]; Palmitoyl = CCCCCCCCCCCCCCCC(=O)*
Columns and labels:
[1] = molecular target: T1, human glucagon-like peptide 1 receptor (GLP-1R) (Homo sapiens, UniProt P43220); assay: GLP-1 receptor efficacy assay (cAMP AlphaScreen, CHO cells); assay type: cell-based; details: for Ratio GLP-1/Glucagon: EC50 [GLP-1R] / EC50 [Glucagon-R], human receptors in CHO-K1; for EC50: cAMP formation, CHO cells expressing human GLP-1-R, read-out: EC50 hGLP-1R CHO-K1
T1 construct: expressed in transfected cells
Description: (§1) The mammalian expression vectors encoding the Glucagon-R or the GLP-1-R were transfected into Chinese hamster ovary (CHO) cells by the Attractene method. Stably expressing clones were obtained by Zeocin selection (250 μg/mL) upon limited dilution of cells resistant to the selection pressure. […] One Glucagon-R expressing clone and one GLP-1-R expressing clone were chosen for compound profiling.
(§2) CHO cells expressing the human Glucagon-R, or human GLP-1-R were seeded 24 hours prior to the assay at 30,000 cells per well in 96-well microtiter plates in culture in 100 μl growth medium. On the day of analysis, growth medium was removed and the cells were washed once with 200 μl of assay buffer (Krebs-Ringer-buffer—KRBH). The buffer was removed and the cells were incubated for 15 min at room temperature in 10 μl KRBH (KRBH+10 mM HEPES, 5 mM NaHCO3, 0.1% (V/V) BSA) with 0.1 mM IBMX in deionized water containing increasing concentrations of test peptides. The reaction was stopped by the addition of lysis buffer (0.1% w/v BSA, 5 mM HEPES, 0.3% v/v Tween-20). After cell lysis for 10 min at room temperature, lysates were transferred to 384-well plates and 10 μl of acceptor/donorbead mixture as contained in the AlphaScreen™ cAMP Functional Assay Kit was added. After one hour of incubation at room temperature in the dark, the cAMP content was determined applying the AlphaScreen™ cAMP Functional Assay Kit from Perkin-Elmer according to manufacturer instructions. […] The GLP-1/glucagon ratio is calculated as defined earlier.

[2] = molecular target: T2, human glucagon receptor (Glucagon-R) (Homo sapiens, UniProt P47871); assay: Glucagon receptor efficacy assay (cAMP AlphaScreen, CHO cells); assay type: cell-based; details: cAMP formation, CHO cells expressing human Glucagon-R; read-out: EC50 hGCGR CHO-K1
T2 construct: expressed in transfected cells
Description: as §1, §2

T2 sequence (P47871 26-477): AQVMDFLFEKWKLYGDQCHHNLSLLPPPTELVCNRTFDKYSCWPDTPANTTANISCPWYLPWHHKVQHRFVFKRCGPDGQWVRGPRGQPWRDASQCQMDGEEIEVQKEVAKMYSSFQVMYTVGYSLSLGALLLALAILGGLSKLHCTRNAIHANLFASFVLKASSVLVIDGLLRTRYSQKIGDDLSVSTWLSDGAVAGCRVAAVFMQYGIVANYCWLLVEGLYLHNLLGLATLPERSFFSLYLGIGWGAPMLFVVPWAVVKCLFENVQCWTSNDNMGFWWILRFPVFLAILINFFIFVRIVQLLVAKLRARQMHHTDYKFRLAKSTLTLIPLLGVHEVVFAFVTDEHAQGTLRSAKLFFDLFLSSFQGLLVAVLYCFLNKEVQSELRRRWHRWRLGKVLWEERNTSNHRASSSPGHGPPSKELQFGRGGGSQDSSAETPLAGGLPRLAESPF
T1 sequence (P43220 24-463): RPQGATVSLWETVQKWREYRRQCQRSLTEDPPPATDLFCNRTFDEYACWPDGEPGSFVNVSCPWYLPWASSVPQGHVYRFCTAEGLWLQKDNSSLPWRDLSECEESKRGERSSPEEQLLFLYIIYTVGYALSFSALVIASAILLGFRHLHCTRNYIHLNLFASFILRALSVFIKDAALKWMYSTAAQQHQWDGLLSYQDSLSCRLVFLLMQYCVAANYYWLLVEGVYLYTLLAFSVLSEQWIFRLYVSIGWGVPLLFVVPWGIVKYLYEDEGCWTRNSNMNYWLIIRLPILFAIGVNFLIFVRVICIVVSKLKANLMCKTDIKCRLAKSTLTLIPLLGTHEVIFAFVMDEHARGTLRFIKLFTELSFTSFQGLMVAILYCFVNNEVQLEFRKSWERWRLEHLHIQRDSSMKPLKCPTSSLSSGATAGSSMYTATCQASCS

| Compound | Ratio GLP-1/Glucagon [1] | EC50 [2] | EC50 [1] |
| --- | --- | --- | --- |
| CCCCCCCCCCCCCCCC(=O)N[C@@H](CCC(=O)NCCCC[C@H](NC(=O)[C@H](CO)NC(=O)[C@H](CC(=O)O)NC(=O)[C@H](CC(C)C)NC(=O)[C@H](Cc1ccc(O)cc1)NC(=O)[C@H](CCCCN)NC(=O)[C@H](CO)NC(=O)[C@H](Cc1ccc(O)cc1)NC(=O)[C@H](CC(=O)O)NC(=O)[C@H](CO)NC(=O)[C@@H](NC(=O)[C@H](Cc1ccccc1)NC(=O)[C@@H](NC(=O)CNC(=O)[C@H](CCC(N)=O)NC(=O)C1(NC(=O)[C@@H](N)Cc2c[nH]cn2)CCC1)[C@@H](C)O)[C@@H](C)O)C(=O)N[C@@H](C)C(=O)N[C@@H](C)C(=O)N[C@@H](Cc1c[nH]cn1)C(=O)N[C@@H](CC(=O)O)C(=O)N[C@@H](Cc1ccccc1)C(=O)N[C@H](C(=O)N[C@@H](CCC(=O)O)C(=O)N[C@@H](Cc1c[nH]c2ccccc12)C(=O)N[C@@H](CC(C)C)C(=O)N[C@@H](CC(C)C)C(=O)N[C@@H](CO)C(=O)N[C@@H](C)C(N)=O)C(C)C)C(=O)O [Compound 4] | 2.59 | 0.12 nM |  |
| CCCCCCCCCCCCCCCC(=O)N[C@@H](CCC(=O)NCCCC[C@H](NC(=O)[C@H](CO)NC(=O)[C@H](CC(=O)O)NC(=O)[C@H](CC(C)C)NC(=O)[C@H](Cc1ccc(O)cc1)NC(=O)[C@H](CCCCN)NC(=O)[C@H](CO)NC(=O)[C@H](Cc1ccc(O)cc1)NC(=O)[C@H](CC(=O)O)NC(=O)[C@H](CO)NC(=O)[C@@H](NC(=O)[C@H](Cc1ccccc1)NC(=O)[C@@H](NC(=O)CNC(=O)[C@H](Cc1c[nH]cn1)NC(=O)[C@H](CO)NC(=O)[C@@H](N)Cc1c[nH]cn1)[C@@H](C)O)[C@@H](C)O)C(=O)N[C@@H](C)C(=O)N[C@@H](C)C(=O)N[C@@H](Cc1c[nH]cn1)C(=O)N[C@@H](CC(=O)O)C(=O)N[C@@H](Cc1ccccc1)C(=O)N[C@H](C(=O)N[C@@H](CCC(=O)O)C(=O)N[C@@H](Cc1c[nH]c2ccccc12)C(=O)N[C@@H](CC(C)C)C(=O)N[C@@H](CC(C)C)C(=O)N[C@@H](CO)C(=O)N[C@@H](C)C(N)=O)C(C)C)C(=O)O [Compound 5] (H-HSHGTFTSDYSKYLDSK([γGlu-Palmitoyl])AAHDFVEWLLSA-NH2) | 2.25 | 0.12 nM | 0.27 nM |
| CCCCCCCCCCCCCCCC(=O)N[C@@H](CCC(=O)NCCCC[C@H](NC(=O)[C@H](CCC(=O)O)NC(=O)[C@H](CC(=O)O)NC(=O)[C@H](CC(C)C)NC(=O)[C@H](Cc1ccc(O)cc1)NC(=O)[C@H](CCCCN)NC(=O)[C@H](CO)NC(=O)[C@H](Cc1ccc(O)cc1)NC(=O)[C@H](CC(=O)O)NC(=O)[C@H](CO)NC(=O)[C@@H](NC(=O)[C@H](Cc1ccccc1)NC(=O)[C@@H](NC(=O)CNC(=O)[C@H](CCC(N)=O)NC(=O)[C@H](CC)NC(=O)[C@@H](N)Cc1c[nH]cn1)[C@@H](C)O)[C@@H](C)O)C(=O)N[C@@H](C)C(=O)N[C@@H](C)C(=O)N[C@@H](CCCCN)C(=O)N[C@@H](CC(=O)O)C(=O)N[C@@H](Cc1ccccc1)C(=O)N[C@H](C(=O)N[C@@H](CCC(=O)O)C(=O)N[C@@H](Cc1c[nH]c2ccccc12)C(=O)N[C@@H](CC(C)C)C(=O)N[C@@H](CCC(=O)O)C(=O)N[C@@H](CO)C(=O)N[C@@H](C)C(N)=O)[C@@H](C)CC)C(=O)O [Compound 10] | 2.7 | 0.1 nM | 0.27 nM |
